Reference: ChEMBL document CHEMBL4665867, “Design and synthesis of analogues of the sphingosine-1-phosphate receptor 1 agonist IMMH001 with improved phosphorylation rate in human blood” (Bioorg Med Chem, 2020)

Experiments:
Assay type in all cases: ADME, tissue-based
[1] = target: T1, Sphingosine kinase 1/2 (Homo sapiens, UniProt Q9NRA0+Q9NYA1); test: Prodrug conversion in human blood assessed as SPHK1/SPHK2-mediated compound phosphorylation by measuring Vmax by LC-MS/MS analysis
[2] = target: T2, Sphingosine kinase 1/2 (Rattus norvegicus, UniProt Q91V26+A6JB73); test: Prodrug conversion in rat blood assessed as SPHK1/SPHK2-mediated compound phosphorylation by measuring intrinsic clearance by LC-MS/MS analysis
[3] = target: T1, Sphingosine kinase 1/2; test: Prodrug conversion in human blood assessed as SPHK1/SPHK2-mediated compound phosphorylation by measuring Km by LC-MS/MS analysis
[4] = target: T2, Sphingosine kinase 1/2; test: Prodrug conversion in rat blood assessed as SPHK1/SPHK2-mediated compound phosphorylation by measuring Km by LC-MS/MS analysis
[5] = target: T1, Sphingosine kinase 1/2; test: Prodrug conversion in human blood assessed as SPHK1/SPHK2-mediated compound phosphorylation by measuring intrinsic clearance by LC-MS/MS analysis
[6] = target: T2, Sphingosine kinase 1/2; test: Prodrug conversion in rat blood assessed as SPHK1/SPHK2-mediated compound phosphorylation by measuring Vmax by LC-MS/MS analysis

Row | Vmax [1] [pmol/min] | CL [2] [µL/min] | Km [3] [µM] | Km [4] [µM] | CL [5] [µL/min] | Vmax [6] [pmol/min] | SMILES
1 | 0.53 | 0.437 | 42.62 | 85.25 | 0.012 | 37.24 | CCCc1nc(-c2ccc(-c3ccc(CCC(N)(CO)CO)cc3)cc2)co1.Cl
2 | 2.15 | 0.175 | 86.55 | 23.6 | 0.025 | 4.13 | CCCc1nc(-c2ccc(-c3ccc(CC[C@@](C)(N)CO)cc3)cc2)co1.Cl
3 | 2.63 | 0.334 | 54.12 | 48.37 | 0.049 | 16.15 | CCCc1nc(-c2ccc(-c3ccc(CC[C@@H](N)CO)cc3)cc2)co1.Cl
4 | 0.31 | 0.95 | 23.7 | 64.6 | 0.013 | 61.3 | CCCCCCCCc1ccc(CCC(N)(CO)CO)cc1.Cl [FINGOLIMOD HYDROCHLORIDE]
